Test results as given in patent publication US10150755B2, “ASK1 inhibitor compounds and uses thereof” (Seal Rock Therapeutics, Inc., priority 2017, dated 2018).

Biological target: ASK1 (Homo sapiens (Human), UniProt Q99683)
Assay: ASK1 Kinase Assay (Promega ASK1 Kinase Enzyme System, ADP-Glo)
Assay type: biochemical
Details: enzyme 50 nM, ATP 10 μM
Protocol: The ASK1 enzymatic assay was run following Promega ASK1 Kinase Enzyme System (Cat #V3881). The kit provides the protocol, enzymes and all reagents necessary to run an assay. Firstly, the compounds, enzyme, substrate and ATP were diluted in provided assay buffer. The final concentration of the enzyme was 50 nM, substrate (Myelin basic protein) 1 μg/ml and ATP 10 μM. The compound and the enzyme were pre-incubated in a 384 well white solid bottom plate (Greiner, Cat#784075) for 10 minutes. After incubation, the substrate and ATP were added and incubated for further 60 minutes. After 60 minutes, ADP-Glo™ was added and plate was incubated for another 40 minutes. After 40 minutes, Kinase Detection Reagent was added and the plate was incubated for 45 minutes. After 45 minutes, plate was read on Perkin Elmer EnVision using luminescence read (0.5 seconds/well).

Sequence of ASK1 (Q99683 649-946 limits assumed): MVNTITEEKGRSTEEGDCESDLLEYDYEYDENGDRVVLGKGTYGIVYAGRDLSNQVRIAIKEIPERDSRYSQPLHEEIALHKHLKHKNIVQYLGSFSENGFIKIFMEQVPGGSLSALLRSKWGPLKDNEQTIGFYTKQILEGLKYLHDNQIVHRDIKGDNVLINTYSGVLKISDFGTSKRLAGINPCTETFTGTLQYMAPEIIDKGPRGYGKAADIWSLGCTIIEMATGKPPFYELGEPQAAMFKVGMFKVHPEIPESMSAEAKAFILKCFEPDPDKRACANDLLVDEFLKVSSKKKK

IC50	SMILES
< 200 nM	O=C1c2cc(-c3cccnc3)c(F)cc2CN1c1cccc(-c2nncn2C2CC2)n1 [Compound 63, 2-(6-(4-cyclopropyl-4H-1,2,4-triazol-3-yl)pyridin-2-yl)-5-fluoro-6-(pyridin-3-yl)isoindolin-1-one]
< 200 nM	O=C1c2cc(-c3cccnc3)c(Cl)cc2CN1c1cccc(-c2nncn2C2CC2)n1 [Compound 65, 5-chloro-2-(6-(4-cyclopropyl-4H-1,2,4-triazol-3-yl)pyridin-2-yl)-6-(pyridin-3-yl)isoindolin-1-one]
< 200 nM	CN(C)c1cc2c(cc1-c1cccnc1)C(=O)N(c1cccc(-c3nncn3C3CC3)n1)C2 [Compound 67, 2-(6-(4-cyclopropyl-4H-1,2,4-triazol-3-yl)pyridin-2-yl)-5-(dimethylamino)-6-(pyridin-3-yl)isoindolin-1-one]
< 200 nM	COC(=O)c1ccc2c(c1)C(=O)N(c1cccc(-c3nncn3C3CC3)n1)C2 [Compound 72, methyl 2-(6-(4-cyclopropyl-4H-1,2,4-triazol-3-yl)pyridin-2-yl)-3-oxoisoindoline-5-carboxylate]
< 200 nM	O=C(O)c1ccc2c(c1)C(=O)N(c1cccc(-c3nncn3C3CC3)n1)C2 [Compound 73, 2-(6-(4-cyclopropyl-4H-1,2,4-triazol-3-yl)pyridin-2-yl)-3-oxoisoindoline-5-carboxylic acid]
200 to 1000 nM	CN(C)C(=O)c1ccc2c(c1)C(=O)N(c1cccc(-c3nncn3C3CC3)n1)C2 [Compound 74, 2-(6-(4-cyclopropyl-4H-1,2,4-triazol-3-yl)pyridin-2-yl)-N,N-dimethyl-3-oxoisoindoline-5-carboxamide]
200 to 1000 nM	O=C1c2ccccc2CN1c1cccc(-c2nnc3n2CCC3)n1 [Compound 76, 2-(6-(6,7-dihydro-5H-pyrrolo[2,1-c][1,2,4]triazol-3-yl)pyridin-2-yl)isoindolin-1-one]
1000 to 10000 nM	O=C1c2ccccc2CN1c1cccc(-c2nnc3n2CCCC3)n1 [Compound 77, 2-(6-(5,6,7,8-Tetrahydro-[1,2,4]triazolo[4,3-a]pyridin-3-yl)pyridin-2-yl)isoindolin-1-one]
< 200 nM	O=C1c2ccccc2CN1c1cccc(-c2nnc3n2[C@@H](CO)CC3)n1 [Compound 79, (R)-2-(6-(5-(hydroxymethyl)-6,7-dihydro-5H-pyrrolo[2,1-c][1,2,4]triazol-3-yl)pyridin-2-yl)isoindolin-1-one]
1000 to 10000 nM	O=C1c2ccccc2CN1c1cccc(-c2nnc3n2[C@H](CO)CC3)n1 [Compound 81, (S)-2-(6-(5-(Hydroxymethyl)-6,7-dihydro-5H-pyrrolo[2,1-c][1,2,4]triazol-3-yl)pyridin-2-yl)isoindolin-1-one]
< 200 nM	O=C1c2ccccc2CN1c1cccc(-n2nncc2C2CC2)n1 [Compound 83, 2-(6-(5-cyclopropyl-1H-1,2,3-triazol-1-yl)pyridin-2-yl)isoindolin-1-one]
200 to 1000 nM	O=C1c2ccccc2CN1c1cccc(-n2ccnn2)n1 [Compound 84, 2-(6-(1H-1,2,3-triazol-1-yl)pyridin-2-yl)isoindolin-1-one]

Further lines, the compound ahead of its results:

SMILES	IC50
O=C1c2cc(-c3cnn(C4CC4)c3)ccc2CN1c1cccc(-c2nncn2C2CC2)n1 [Compound 47, 6-(1-cyclopropyl-1H-pyrazol-4-yl)-2-(6-(4-cyclopropyl-4H-1,2,4-triazol-3-yl)pyridin-2-yl)isoindolin-1-one]	< 200 nM
O=C1c2cc(-c3cnccc3F)ccc2CN1c1cccc(-c2nncn2C2CC2)n1 [Compound 48, 2-(6-(4-cyclopropyl-4H-1,2,4-triazol-3-yl)pyridin-2-yl)-6-(4-fluoropyridin-3-yl)isoindolin-1-one]	< 200 nM
O=C1c2cc(-c3cnccc3Cl)ccc2CN1c1cccc(-c2nncn2C2CC2)n1 [Compound 49, 6-(4-chloropyridin-3-yl)-2-(6-(4-cyclopropyl-4H-1,2,4-triazol-3-yl)pyridin-2-yl)isoindolin-1-one]	< 200 nM
O=C1c2cc(-c3ccncc3)ccc2CN1c1cccc(-c2nncn2C2CC2)n1 [Compound 50, 2-(6-(4-cyclopropyl-4H-1,2,4-triazol-3-yl)pyridin-2-yl)-6-(pyridin-4-yl)isoindolin-1-one]	< 200 nM
Cc1ncc(-c2ccc3c(c2)C(=O)N(c2cccc(-c4nncn4C4CC4)n2)C3)s1 [Compound 51, 2-(6-(4-cyclopropyl-4H-1,2,4-triazol-3-yl)pyridin-2-yl)-6-(2-methylthiazol-5-yl)isoindolin-1-one]	< 200 nM
Cc1ncccc1-c1ccc2c(c1)C(=O)N(c1cccc(-c3nncn3C3CC3)n1)C2 [Compound 52, 2-(6-(4-cyclopropyl-4H-1,2,4-triazol-3-yl)pyridin-2-yl)-6-(2-methylpyridin-3-yl)isoindolin-1-one]	< 200 nM
O=C1c2cc(-c3cccnc3F)ccc2CN1c1cccc(-c2nncn2C2CC2)n1 [Compound 53, 2-(6-(4-cyclopropyl-4H-1,2,4-triazol-3-yl)pyridin-2-yl)-6-(2-fluoropyridin-3-yl)isoindolin-1-one]	< 200 nM
Cc1cncc(-c2ccc3c(c2)C(=O)N(c2cccc(-c4nncn4C4CC4)n2)C3)c1 [Compound 54, 2-(6-(4-cyclopropyl-4H-1,2,4-triazol-3-yl)pyridin-2-yl)-6-(5-methylpyridin-3-yl)isoindolin-1-one]	< 200 nM
O=C1c2cc(-c3cncc(F)c3)ccc2CN1c1cccc(-c2nncn2C2CC2)n1 [Compound 55, 2-(6-(4-cyclopropyl-4H-1,2,4-triazol-3-yl)pyridin-2-yl)-6-(5-fluoropyridin-3-yl)isoindolin-1-one]	200 to 1000 nM
O=C1c2cc(-c3cnc(C4CC4)nc3)ccc2CN1c1cccc(-c2nncn2C2CC2)n1 [Compound 56, 2-(6-(4-cyclopropyl-4H-1,2,4-triazol-3-yl)pyridin-2-yl)-6-(2-cyclopropylpyrimidin-5-yl)isoindolin-1-one]	< 200 nM
Cn1ccnc1-c1ccc2c(c1)C(=O)N(c1cccc(-c3nncn3C3CC3)n1)C2 [Compound 57, 2-(6-(4-cyclopropyl-4H-1,2,4-triazol-3-yl)pyridin-2-yl)-6-(1-methyl-1H-imidazol-2-yl)isoindolin-1-one]	< 200 nM
O=C1c2cc(-c3ccccn3)ccc2CN1c1cccc(-c2nncn2C2CC2)n1 [Compound 58, 2-(6-(4-cyclopropyl-4H-1,2,4-triazol-3-yl)pyridin-2-yl)-6-(pyridin-2-yl)isoindolin-1-one]	< 200 nM
O=C1c2cc(-c3cccnn3)ccc2CN1c1cccc(-c2nncn2C2CC2)n1 [Compound 59, 2-(6-(4-cyclopropyl-4H-1,2,4-triazol-3-yl)pyridin-2-yl)-6-(pyridazin-3-yl)isoindolin-1-one]	< 200 nM
O=C1c2cc(-c3ccc(C4CC4)nn3)ccc2CN1c1cccc(-c2nncn2C2CC2)n1 [Compound 61, 2-(6-(4-cyclopropyl-4H-1,2,4-triazol-3-yl)pyridin-2-yl)-6-(6-cyclopropylpyridazin-3-yl)isoindolin-1-one]	< 200 nM
O=C1c2cc(-n3cc(C4CC4)nn3)ccc2CN1c1cccc(-c2nncn2C2CC2)n1 [Compound 62, 6-(4-cyclopropyl-1H-1,2,3-triazol-1-yl)-2-(6-(4-cyclopropyl-4H-1,2,4-triazol-3-yl)pyridin-2-yl)isoindolin-1-one]	< 200 nM
